Test results published in publication PMC9090415, “Discovery of small molecule inhibitors of Plasmodium falciparum apicoplast DNA polymerase” (Journal of Enzyme Inhibition and Medicinal Chemistry, 2022).

Target: P. falciparum apicoplast DNA polymerase (Pf-apPOL) (Plasmodium falciparum, UniProt Q8ILY1)
Assay: Fluorescence-based high-throughput DNA polymerase assay (molecular beacon), primary screen and dose-response
Assay type: biochemical
Method: The HT assay employs a molecular beacon, a stem-loop DNA template with a Cy3 dye and the Black Hole Quencher on the 3′ and 5′ ends of the DNA, respectively. Pf-apPOL concentration is based on a calculated absorptivity of ε280 = 56750 M^−1 cm^−1. Reactions were carried out at 25 °C, using Corning 3575 […] (well-volume, 20 µL). Assays testing for compound inhibition composed of reaction buffer (pH 7.9 in 50 mM potassium acetate, 20 mM Tris-acetate and 10 mM magnesium acetate), Pf-apPOL (20 nM), DNA substrate (20 nM), dNTPs (6 µM), and compound (10 µM in DMSO). The DNA and nucleotide substrates (dNTPs) were at concentrations of 20 nM and 6 µM, respectively, in the assay. Pf-apPOL was incubated in the reaction buffer with dNTPs and the compound of interest (10 µM, in the assay) at 25 °C for 10 min. The DNA substrate was then added and the reaction was allowed to proceed for 90 min at 25 °C.
Each assay plate contained 16 negative controls (no Pf-apPOL, DMSO present) and 16 positive controls (Pf-apPOL present, no DMSO). The fluorescence of each well was determined using a BioTek Synergy Neo fluorescence plate reader using excitation and emission wavelengths of 555 and 570 nm, respectively.
In the above, Min is the average of fluorescence emission of the negative controls (substrate only), Max the average fluorescence emission from the positive controls (enzyme + substrate), and Test the emission from the assays in the presence of compounds (enzyme + compound + substrates). […] […] The IC50 of each compound was determined using Equation (2): (2) IC50= Vmax/(1+ (I/IC50)^n)
In the above, n measures cooperativity, with n > 1 indicating synergistic binding of more than a single molecule of the compound.
To identify apPOL inhibitors we utilised our previously developed high-throughput DNA polymerase assay. The HT assay is based on a molecular beacon DNA template that forms a stem-loop with a Cy3 dye and the Black Hole Quencher on the 3′ and 5′ ends of the DNA, respectively. DNA polymerase activity extends an annealed primer through the stem region, displacing the fluorophore from the quencher, thereby increasing its fluorescence (Figure 1(A)). The assay accurately recapitulates the kinetic behaviour of apPOL, as measured through more conventional low-throughput gel-based assays. The Z′ factor for the assay described here was 0.9 across all plates (data not shown).
Figure 1. High-throughput screening. (A) The fluorescent-based DNA polymerase assay used to screen the compound libraries. The DNA template strand is a hairpin loop with a primer annealed to the loop. The 3’ end of the primer is 11 bases away from the 6 bp duplex. Strand displacement activity of the DNA polymerase separates the Cy3 dye from the Black hole quencher leading to an increase in fluorescent signal. (B) The high-throughput assay workflow. The DNA polymerase is incubated with […] compound for 10 min prior to addition of the hairpin substrate. The reaction is quenched at 3 different time points and the fluorescent signal is measured and % inhibition is determined using the provided equation.

[1] = supplemental file 2, sheet IC50 nontoxic compounds; Pf-apPOL

Chain of P. falciparum apicoplast DNA polymerase (Pf-apPOL) (Q8ILY1 entry or part of it): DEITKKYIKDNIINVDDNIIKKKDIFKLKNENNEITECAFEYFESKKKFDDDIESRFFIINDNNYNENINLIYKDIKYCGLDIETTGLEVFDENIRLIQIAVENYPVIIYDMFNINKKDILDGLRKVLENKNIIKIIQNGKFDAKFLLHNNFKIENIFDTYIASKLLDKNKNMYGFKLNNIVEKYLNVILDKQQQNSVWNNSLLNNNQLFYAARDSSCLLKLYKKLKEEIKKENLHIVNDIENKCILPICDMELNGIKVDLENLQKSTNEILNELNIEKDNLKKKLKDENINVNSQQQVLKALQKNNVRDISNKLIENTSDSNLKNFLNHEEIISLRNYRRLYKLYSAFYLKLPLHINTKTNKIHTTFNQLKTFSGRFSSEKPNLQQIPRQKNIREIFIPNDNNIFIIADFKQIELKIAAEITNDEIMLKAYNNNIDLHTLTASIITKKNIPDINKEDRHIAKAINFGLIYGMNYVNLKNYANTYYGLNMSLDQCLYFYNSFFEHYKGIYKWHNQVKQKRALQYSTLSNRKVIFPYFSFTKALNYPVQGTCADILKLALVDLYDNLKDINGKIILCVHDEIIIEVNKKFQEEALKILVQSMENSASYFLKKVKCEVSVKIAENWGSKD

O=C(O)c1nc(-c2ccccc2)nc2c1OCO2 [Molecule 45, OC(=O)c1nc(nc2c1OCO2)c1ccccc1]
% inhibition Apo pol 10' (DRC-1; concentration 2.5; 10'): 6.785% | % inhibition Apol 90' (DRC-1; concentration 2.5; 90'): -0.7182% | % inhibition apPOL 180' (DRC-1; concentration 2.5; 180'): -6.279% | % inhibition Apo pol 10' (DRC-1; concentration 5; 10'): 18.6858% | % inhibition Apol 90' (DRC-1; concentration 5; 90'): 2.776% | % inhibition apPOL 180' (DRC-1; concentration 5; 180'): -4.7971% | % inhibition Apo pol 10' (DRC-1; concentration 10; 10'): 46.4099% | % inhibition Apol 90' (DRC-1; concentration 10; 90'): 22.6615% | % inhibition apPOL 180' (DRC-1; concentration 10; 180'): 10.4504% | % inhibition Apo pol 10' (DRC-1; concentration 20; 10'): 71.5187% | % inhibition Apol 90' (DRC-1; concentration 20; 90'): 46.4112% | % inhibition apPOL 180' (DRC-1; concentration 20; 180'): 26.9983% | % inhibition Apo pol 10' (DRC-1; concentration 40; 10'): 89.2051% | % inhibition Apol 90' (DRC-1; concentration 40; 90'): 75.6472% | % inhibition apPOL 180' (DRC-1; concentration 40; 180'): 64.3043% | % inhibition Apo pol 10' (DRC-1; concentration 80 (unit not given); 10'): 95.8219% | % inhibition Apol 90' (DRC-1; concentration 80; 90'): 92.7909% | % inhibition apPOL 180' (DRC-1; concentration 80; 180'): 90.3482% | % inhibition Apol 40' (DRC-2; 40'; concentration 2.5): 7% | % inhibition Apol 40' (DRC-2; 40'; concentration 10): 34% | % inhibition Apol 40' (DRC-2; 40'; concentration 40): 69% | % inhibition ApPOL 90' (DRC-2; 90'; concentration 5): 7% | % inhibition ApPOL 90' (DRC-2; 90'; concentration 40): 69% | % inhibition apPOL 180' (DRC-2; 180'; concentration 20): 34% | % inhibition Apo pol 5' (DRC-2; concentration 2.5; 5'): 13% | % inhibition Apol 40' (DRC-2; concentration 2.5; 40'): 7% | % inhibition ApPOL 90' (DRC-2; concentration 2.5; 90'): 4% | % inhibition apPOL 180' (DRC-2; concentration 2.5; 180'): -1.61% | % inhibition Apo pol 5' (DRC-2; concentration 5; 5'): 24% | % inhibition Apol 40' (DRC-2; concentration 5; 40'): 14% | % inhibition ApPOL 90' (DRC-2; concentration 5; 90'): 7% | % inhibition apPOL 180' (DRC-2; concentration 5; 180'): -1.28% | % inhibition Apo pol 5' (DRC-2; concentration 10; 5'): 42% | % inhibition Apol 40' (DRC-2; concentration 10; 40'): 34% | % inhibition ApPOL 90' (DRC-2; concentration 10; 90'): 27% | % inhibition apPOL 180' (DRC-2; concentration 10; 180'): 17% | % inhibition Apo pol 5' (DRC-2; concentration 20; 5'): 50% | % inhibition Apol 40' (DRC-2; concentration 20; 40'): 51% | % inhibition ApPOL 90' (DRC-2; concentration 20; 90'): 45% | % inhibition apPOL 180' (DRC-2; concentration 20; 180'): 34% | % inhibition Apo pol 5' (DRC-2; concentration 40; 5'): 58% | % inhibition Apol 40' (DRC-2; concentration 40; 40'): 69% | % inhibition ApPOL 90' (DRC-2; concentration 40; 90'): 69% | % inhibition apPOL 180' (DRC-2; concentration 40; 180'): 68% | % inhibition Apo pol 5' (DRC-2; concentration 80; 5'): 60% | % inhibition Apol 40' (DRC-2; concentration 80; 40'): 77% | % inhibition ApPOL 90' (DRC-2; concentration 80; 90'): 80% | % inhibition apPOL 180' (DRC-2; concentration 80; 180'): 82% | DNA Pol (primary screen value of the 186 hits; unit not given; 90 min, 10 µM): 34 | DNA Pol (primary screen value; head prints only 'DNA Pol'; 90 min, 10 µM): 34

COc1ccccc1C1CC(=O)Oc2cc3c(cc21)OCO3 (stereo not drawn) [KU0104502]
DNA Pol ('DNA Pol' of the 186 hits list (screen value); 90 min, 10 µM): 42 | % inhibition Apo pol 10' (DRC-1; 10'; conc 2.5): 16.5835% | % inhibition Apo pol 10' (DRC-1; 10'; conc 5): 35.5684% | % inhibition Apo pol 10' (DRC-1; 10'; conc 10): 61.1126% | % inhibition Apo pol 10' (DRC-1; 10'; conc 20): 76.0203% | % inhibition Apo pol 10' (DRC-1; 10'; conc 40): 89.9974% | % inhibition Apo pol 10' (DRC-1; 10'; conc 80): 93.475% | % inhibition Apol 90' (DRC-1; 90'; conc 2.5): 2.531% | % inhibition Apol 90' (DRC-1; 90'; conc 5): 13.2862% | % inhibition Apol 90' (DRC-1; 90'; conc 10): 34.6587% | % inhibition Apol 90' (DRC-1; 90'; conc 20): 54.2638% | % inhibition Apol 90' (DRC-1; 90'; conc 40): 81.0345% | % inhibition Apol 90' (DRC-1; 90'; conc 80): 93.8969% | % inhibition apPOL 180' (DRC-1; 180'; conc 2.5): -4.384% | % inhibition apPOL 180' (DRC-1; 180'; conc 5): 1.7201% | % inhibition apPOL 180' (DRC-1; 180'; conc 10): 18.8078% | % inhibition apPOL 180' (DRC-1; 180'; conc 20): 38.0211% | % inhibition apPOL 180' (DRC-1; 180'; conc 40): 74.6782% | % inhibition apPOL 180' (DRC-1; 180'; conc 80): 93.9211% | % inhibition Apo pol 5' (DRC-2; 5'; conc 2.5): 10% | % inhibition Apo pol 5' (DRC-2; 5'; conc 5): 34% | % inhibition Apo pol 5' (DRC-2; 5'; conc 10): 50% | % inhibition Apo pol 5' (DRC-2; 5'; conc 20): 59% | % inhibition Apo pol 5' (DRC-2; 5'; conc 40): 65% | % inhibition Apo pol 5' (DRC-2; 5'; conc 80): 66% | % inhibition Apol 40' (DRC-2; 40'; conc 2.5): 4.3% | % inhibition Apol 40' (DRC-2; 40'; conc 5): 27% | % inhibition Apol 40' (DRC-2; 40'; conc 10): 47% | % inhibition Apol 40' (DRC-2; 40'; conc 20): 62% | % inhibition Apol 40' (DRC-2; 40'; conc 40): 75% | % inhibition Apol 40' (DRC-2; 40'; conc 80): 80% | % inhibition ApPOL 90' (DRC-2; 90'; conc 2.5): 1.26% | % inhibition ApPOL 90' (DRC-2; 90'; conc 5): 23% | % inhibition ApPOL 90' (DRC-2; 90'; conc 10): 42% | % inhibition ApPOL 90' (DRC-2; 90'; conc 20): 60% | % inhibition ApPOL 90' (DRC-2; 90'; conc 40): 77% | % inhibition ApPOL 90' (DRC-2; 90'; conc 80): 82% | % inhibition apPOL 180' (DRC-2; 180'; conc 2.5): -2.17% | % inhibition apPOL 180' (DRC-2; 180'; conc 5): 12% | % inhibition apPOL 180' (DRC-2; 180'; conc 10): 31% | % inhibition apPOL 180' (DRC-2; 180'; conc 20): 53% | % inhibition apPOL 180' (DRC-2; 180'; conc 40): 78% | % inhibition apPOL 180' (DRC-2; 180'; conc 80): 85% | DNA Pol (primary screen value, "DNA Pol"; 90 min, 10 µM): 42

O=C(c1c[nH]c2ncccc12)N1CCCCCC1 [Molecule 51]
IC50 [1]: 21.5 µM

Cc1ccc(-n2nnc(C(=O)O)c2-c2ccccn2)c(F)c1 [Molecule 54]
IC50 [1]: 14.5 µM
